18 compounds from patent US20240228488A1 (TAKEDA PHARMACEUTICAL COMPANY LIMITED, priority 2021, published 2024) can be followed below.

Chain of human activated kallikrein enzyme (P03952 391-638 limits assumed): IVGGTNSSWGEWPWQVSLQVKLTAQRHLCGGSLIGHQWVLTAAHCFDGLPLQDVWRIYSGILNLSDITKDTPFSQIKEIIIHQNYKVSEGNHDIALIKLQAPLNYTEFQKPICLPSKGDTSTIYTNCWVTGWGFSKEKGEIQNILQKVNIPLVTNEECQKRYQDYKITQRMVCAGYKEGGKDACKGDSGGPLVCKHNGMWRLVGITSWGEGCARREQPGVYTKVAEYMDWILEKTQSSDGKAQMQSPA
Chain of human activated kallikrein enzyme (P03952 20-390 partner limits assumed): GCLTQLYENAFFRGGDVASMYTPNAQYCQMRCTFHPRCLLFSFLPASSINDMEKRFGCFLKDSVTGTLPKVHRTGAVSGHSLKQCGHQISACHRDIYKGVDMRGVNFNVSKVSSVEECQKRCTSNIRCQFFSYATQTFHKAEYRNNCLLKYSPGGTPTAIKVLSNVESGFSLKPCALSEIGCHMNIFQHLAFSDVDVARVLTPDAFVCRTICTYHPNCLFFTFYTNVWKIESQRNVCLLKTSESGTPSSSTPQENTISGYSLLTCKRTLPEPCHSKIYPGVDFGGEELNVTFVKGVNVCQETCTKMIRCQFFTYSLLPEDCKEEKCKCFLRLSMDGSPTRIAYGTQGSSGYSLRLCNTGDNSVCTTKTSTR

One test has as its target human activated kallikrein enzyme (Homo sapiens, UniProt P03952). The test is described as follows: Plasma kallikrein inhibition, fluorogenic PFR-AMC substrate, 500 pM activated kallikrein format. The settings on record: 500 pM activated kallikrein, 300 uM PFR-AMC, 30 min preincubation, 10 min reaction; read-out: Primary Dose Response Assay: Average EC50. Type of test: biochemical. The procedure, abridged:
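500 pM enz + cpd, 30 min RT preinc; start w/ PFR-AMC 300 uM; 10 min RT; Ex380/Em460. Buffer: Tris 20 mM pH 7.5, EDTA 1 mM, NaCl 150 mM, PEG-400 0.1%, Triton 0.1%. EC50.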
Take `Cc1ccnc([C@H]2C[C@@H]2C(=O)Nc2cc(OCc3cn4cc(C5(F)CC5)cc(N5CC(=O)N(C)C5=O)c4n3)cnn2)n1` [Example 676, (1S,2S)—N-(5-((6-(1-fluorocyclopropyl)-8-(3-methyl-2,4-dioxoimidazolidin-1-yl)imidazo[1,2-a]pyridin-2-yl)methoxy)pyridazin-3-yl)-2-(4-methylpyrimidin-2-yl)cyclopropane-1-carboxamide]: the EC50 is less than 1 nM.
Same read-out and setting: next, `CN(C)C1CCN(c2cc(C3CC3)cn3cc(CNc4cc(NC(=O)[C@H]5C[C@@H]5c5cccc(Cl)c5)ncn4)nc23)C1` (single isomer, unassigned) [Example I-14]: 1 to 10 nM; `COc1cc([C@H]2C[C@@H]2C(=O)Nc2cc(NCc3cn4cc(C5CC5)ccc4n3)ncn2)cc(NC(=O)OC(C)(C)C)n1` (racemic) [Example I-182, rac-tert-butyl (4-((1S*,2S*)-2-((6-(((6-cyclopropylimidazo[1,2-a]pyridin-2-yl)methyl)amino)pyrimidin-4-yl)carbamoyl)cyclopropyl)-6-methoxypyridin-2-yl)carbamate]: more than 6000 nM.
Same read-out and setting: the figure for `CCc1cc(N2CC(=O)N(C)C2=O)c2nc(CNc3cc(NC(=O)[C@H]4C[C@@H]4c4nccc(C)n4)ncn3)cn2c1` [Example 538, (1S,2S)-N-(6-(((6-ethyl-8-(3-methyl-2,4-dioxoimidazolidin-1-yl)imidazo[1,2-a]pyridin-2-yl)methyl)amino)pyrimidin-4-yl)-2-(4-methylpyrimidin-2-yl)cyclopropane-1-carboxamide] is less than 1 nM; for `Cc1ccnc([C@H]2C[C@@H]2C(=O)Nc2cc(OCc3ccccc3)cc(OCc3cn4cc(C5CC5)cc(N5CC(=O)N(C)C5=O)c4n3)n2)n1` [Example 660, (1S,2S)—N-(4-(benzyloxy)-6-((6-cyclopropyl-8-(3-methyl-2,4-dioxoimidazolidin-1-yl)imidazo[1,2-a]pyridin-2-yl)methoxy)pyridin-2-yl)-2-(4-methylpyrimidin-2-yl)cyclopropane-1-carboxamide] it is 10 to 100 nM.
Regarding `COCCOc1ccc(Cl)cc1[C@H]1C[C@@H]1C(=O)Nc1cc(NCc2cn3cc(C4CC4)ccc3n2)ncn1` (racemic) [Example 310, rac-(1S*,2S*)-2-(5-chloro-2-(2-methoxyethoxy)phenyl)-N-(6-(((6-cyclopropylimidazo[1,2-a]pyridin-2-yl)methyl)amino)pyrimidin-4-yl)cyclopropane-1-carboxamide], the EC50 lay in the range of 100 to 1000 nM.
`COC(=O)C1CN(c2cc(C3CC3)cn3cc(CNc4cc(NC(=O)[C@H]5C[C@@H]5c5cccc(Cl)c5)ncn4)nc23)CCN1C` (stereo partly drawn) [Example I-8, methyl 4-(2-(((6-((15,2S)-2-(3-chlorophenyl)cyclopropane-1-carboxamido)pyrimidin-4-yl)amino)methyl)-6-cyclopropylimidazo[1,2-α]pyridin-8-yl)-1-methylpiperazine-2-carboxylate]: the half-maximal effective concentration (EC50) was 1 to 10 nM.
Turning to `Cc1ccnc([C@H]2C[C@@H]2C(=O)Nc2cc(NC(CO)c3cn4cc(C5CC5)cc(N5CC(=O)N(C)C5=O)c4n3)nc(C)n2)n1` (stereo partly drawn) [Example I-650, (1S,2S)—N-(6-((1-(6-cyclopropyl-8-(3-methyl-2,4-dioxoimidazolidin-1-yl)imidazo[1,2-a]pyridin-2-yl)-2-hydroxyethyl)amino)-2-methylpyrimidin-4-yl)-2-(4-methylpyrimidin-2-yl)cyclopropane-1-carboxamide], the EC50 is less than 1 nM.
Still for that read-out and setting: next, `Cc1ccnc([C@H]2C[C@@H]2C(=O)Nc2cc(NCc3cn4cc(C5CC5)cc(N5CC(=O)N(C)C5=O)c4n3)c(Cl)nn2)n1` [Example I-247, (1S,2S)-N-(6-chloro-5-(((6-cyclopropyl-8-(3-methyl-2,4-dioxoimidazolidin-1-yl)imidazo[1,2-a]pyridin-2-yl)methyl)amino)pyridazin-3-yl)-2-(4-methylpyrimidin-2-yl)cyclopropane-1-carboxamide]: 1 to 10 nM; `COc1ccc(=O)n([C@H]2C[C@@H]2C(=O)Nc2cc(NCc3cn4cc(C5CC5)ccc4n3)ncn2)c1` (racemic) [Example I-181, rac-(1S*,2S*)-N-(6-(((6-cyclopropylimidazo[1,2-a]pyridin-2-yl)methyl)amino)pyrimidin-4-yl)-2-(5-methoxy-2-oxopyridin-1(2H)-yl)cyclopropane-1-carboxamide]: more than 6000 nM.
Consider `COc1nc(NCc2cn3cc(C4CC4)ccc3n2)cc(NC(=O)[C@@H]2C[C@H]2c2cccc(Cl)c2)n1` (racemic) [Example 107, rac-(1S*,2S*)-2-(3-chlorophenyl)-N-(6-(((6-cyclopropylimidazo[1,2-a]pyridin-2-yl)methyl)amino)-2-methoxypyrimidin-4-yl)cyclopropane-1-carboxamide], for which the EC50 was 10 to 100 nM.
On the same count and under the same terms, the figure for `Cc1ccnc([C@H]2C[C@@H]2C(=O)Nc2nncc(N[C@H](C)c3cn4cc(C5CC5)cc(N5CC(=O)N(C)C5=O)c4n3)n2)n1` [Example 665, (1S,2S)—N-(5-(((R)-1-(6-cyclopropyl-8-(3-methyl-2,4-dioxoimidazolidin-1-yl)imidazo[1,2-a]pyridin-2-yl)ethyl)amino)-1,2,4-triazin-3-yl)-2-(4-methylpyrimidin-2-yl)cyclopropane-1-carboxamide] is less than 1 nM; for `O=C(Nc1nccc2cn(Cc3cn4cc(C5CC5)ccc4n3)nc12)[C@H]1C[C@@H]1c1cccc(Cl)c1` (racemic) [Example 592, rac-(1S*,2S*)-2-(3-chlorophenyl)-N-(2-((6-cyclopropylimidazo[1,2-a]pyridin-2-yl)methyl)-2H-pyrazolo[3,4-c]pyridin-7-yl)cyclopropane-1-carboxamide] it is 1 to 10 nM.
On the same count and under the same terms, the figure for `CCOC(=O)c1cnc(NC(=O)[C@H]2C[C@@H]2c2nccc(C)n2)nc1OCc1cn2cc(C3CC3)cc(N3CC(=O)N(C)C3=O)c2n1` [Example I-654, ethyl 4-((6-cyclopropyl-8-(3-methyl-2,4-dioxoimidazolidin-1-yl)imidazo[1,2-a]pyridin-2-yl)methoxy)-2-((1S,2S)-2-(4-methylpyrimidin-2-yl)cyclopropane-1-carboxamido)pyrimidine-5-carboxylate] is less than 1 nM; for `O=C(Nc1cc(NCc2cn3cc(C4CC4)ccc3n2)ccn1)[C@@H]1C[C@]12CCc1ccc(Cl)cc12` (relative stereo) [Example I-272, rac-(1S*,2S*)-6′-chloro-N-(4-(((6-cyclopropylimidazo[1,2-a]pyridin-2-yl)methyl)amino)pyridin-2-yl)-2′,3′-dihydrospiro[cyclopropane-1,1′-indene]-2-carboxamide] it is 1000 to 6000 nM; for `N#CC1(c2cccc(Cl)c2)CC1C(=O)Nc1cc(NCc2cn3cc(C4CC4)ccc3n2)ncn1` (stereo not drawn) [Example 349, 2-(3-chlorophenyl)-2-cyano-N-(6-(((6-cyclopropylimidazo[1,2-a]pyridin-2-yl)methyl)amino)pyrimidin-4-yl)cyclopropane-1-carboxamide] it is more than 6000 nM.
Still for that read-out and setting: the figure for `Cc1ccnc([C@H]2C[C@@H]2C(=O)Nc2cc(CCc3cn4cc(C5CC5)cc(N5CC(=O)N(C)C5=O)c4n3)ccn2)n1` [Example I-653, (1S,2S)—N-(4-(2-(6-cyclopropyl-8-(3-methyl-2,4-dioxoimidazolidin-1-yl)imidazo[1,2-a]pyridin-2-yl)ethyl)pyridin-2-yl)-2-(4-methylpyrimidin-2-yl)cyclopropane-1-carboxamide] is less than 1 nM.

Still in this test, the particulars now being: comparative compounds, 500 pM activated kallikrein format; read-out: Primary Dose Response Assay: Average EC50.
With `O=C(Nc1cc(NCc2cn3cc(C4CC4)ccc3n2)ncn1)NC1CC1c1cccc(Cl)c1` (stereo not drawn), the EC50 is 1000 to 6000 nM.

As usually defined, the EC50 is the concentration giving half of the maximal effect.
